Here are results for 26 compounds from ChEMBL document CHEMBL4190314, “Quinoline hybrids and their antiplasmodial and antimalarial activities” (Eur J Med Chem, 2017).

pIC50: −log10 of the molar value.

Assay type in all cases: functional, organism-based
The subject of experiment [1] is Plasmodium falciparum. The experiment in a line: Antimalarial activity against synchronous culture of Plasmodium falciparum W2 ring stage infected in human erythrocytes after 48 hrs by flow cytometry. Particulars: W2, 48 h.
The test system of experiment [2] is Plasmodium falciparum. The experiment in a line: Antimalarial activity against Plasmodium falciparum 3D7 infected in human erythrocytes after 72 hrs by SYBR Green-1 staining based fluorescence assay. The settings on record: 3D7, 72 h.
In experiment [3] the test system is Plasmodium falciparum. The experiment in a line: Antimalarial activity against chloroquine-sensitive Plasmodium falciparum 3D7 infected in human erythrocytes after 72 hrs by SYBR Green-1 staining based fluorescence assay. The settings on record: 3D7, 72 h.
Experiment [4] concerns Plasmodium falciparum. Description: Antimalarial activity against chloroquine-resistant Plasmodium falciparum K1 infected in human type A+ erythrocytes after 48 hrs by [3H]-hypoxanthine incorporation assay.
In experiment [5] the test system is Plasmodium falciparum. Description: Antimalarial activity against chloroquine-sensitive Plasmodium falciparum 3D7 infected in human type A+ erythrocytes after 48 hrs by [3H]-hypoxanthine incorporation assay.
For experiment [6], the system named is Plasmodium falciparum. Description: Antimalarial activity against chloroquine-sensitive Plasmodium falciparum D6 infected in human red blood cells assessed as reduction in parasitic LDH activity by Malstat reagent based spectrophotometric method.
Experiment [7] relates to Plasmodium falciparum. The experiment in a line: Antimalarial activity against chloroquine-resistant Plasmodium falciparum W2 infected in human red blood cells assessed as reduction in parasitic LDH activity by Malstat reagent based spectrophotometric method.
Experiment [8] relates to Plasmodium falciparum. Description: Antimalarial activity against chloroquine-resistant Plasmodium falciparum W2 infected in human type A+ erythrocytes after 24 hrs by [3H]-hypoxanthine incorporation assay.
For experiment [9], the system named is Plasmodium falciparum. The experiment in a line: Antimalarial activity against chloroquine-sensitive Plasmodium falciparum 3D7 infected in human type A+ erythrocytes after 24 hrs by [3H]-hypoxanthine incorporation assay.

The compound `O=C(/C=C/c1ccccc1)NCCCCNc1ccnc2cc(Cl)ccc12` gave a pIC50 in [1] of 7.23 to 7.96.

With `Cc1ccc(/C=C/C(=O)NCCCCNc2ccnc3cc(Cl)ccc23)cc1`, the pIC50 in experiment [1] was 7.23 to 7.96.

In experiment [1], `CC(C)c1ccc(/C=C/C(=O)NCCCCNc2ccnc3cc(Cl)ccc23)cc1` had a pIC50 of 7.23 to 7.96.

In experiment [1], `COc1ccc(/C=C/C(=O)NCCCCNc2ccnc3cc(Cl)ccc23)cc1` had a pIC50 of 7.23 to 7.96.

On to `Nc1ccc(/C=C/C(=O)NCCCCNc2ccnc3cc(Cl)ccc23)cc1`, for which the pIC50 in experiment [1] is 7.23 to 7.96.

As to `O=C(/C=C/c1cccc(F)c1)NCCCCNc1ccnc2cc(Cl)ccc12`, the pIC50 in [1] is 7.23 to 7.96.

Turning to `O=C(/C=C/c1ccc(F)cc1)NCCCCNc1ccnc2cc(Cl)ccc12`, in experiment [1], the pIC50 is 7.23 to 7.96.

As to `O=C(/C=C/c1ccc(Cl)cc1)NCCCCNc1ccnc2cc(Cl)ccc12`, the negative logarithm of the IC50 (pIC50) in [1] is 7.23 to 7.96.

Consider `O=C(/C=C/c1ccc(Br)cc1)NCCCCNc1ccnc2cc(Cl)ccc12`, for which, in [1], the pIC50 was 7.23 to 7.96.

Consider `O=C(/C=C/c1ccccc1[N+](=O)[O-])NCCCCNc1ccnc2cc(Cl)ccc12`, for which, in experiment [1], the pIC50 is 7.23 to 7.96.

As for `O=C(/C=C/c1cccc([N+](=O)[O-])c1)NCCCCNc1ccnc2cc(Cl)ccc12`, in experiment [1], the pIC50 is 7.23 to 7.96.

In experiment [1], `O=C(/C=C/c1ccc([N+](=O)[O-])cc1)NCCCCNc1ccnc2cc(Cl)ccc12` showed a pIC50 of 7.23 to 7.96.

Compound `CN(C)c1ccc(/C=C/C(=O)NCCCCNc2ccnc3cc(Cl)ccc23)cc1` showed a pIC50 in experiment [1] of 7.23 to 7.96.

`COc1ccc(/C=C/C(=O)NCCCCNc2ccnc3cc(Cl)ccc23)cc1OC` gave a pIC50 in experiment [1] of 7.23 to 7.96.

The compound `C=C[C@H]1CN2CC[C@H]1C[C@H]2[C@H](OC(=O)[C@H](CCCCNC(=O)OCc1ccccc1)NC(=O)OCc1ccccc1)c1ccnc2ccc(OC)cc12` showed a negative-log IC50 (pIC50) in [2] of more than 7.00.

In [3], `C=C[C@H]1CN2CC[C@H]1C[C@H]2[C@H](OC(=O)CNC(=O)c1cn(C2CC2)c2cc(N3CCN(CC)CC3)c(F)cc2c1=O)c1ccnc2ccc(OC)cc12` gave a pIC50 of 6.68 to 7.92.

Compound `C=C[C@H]1CN2CC[C@H]1C[C@H]2[C@H](OC(=O)[C@H](Cc1cn(S(=O)(=O)c2ccc(C)cc2)cn1)NC(=O)OC(C)(C)C)c1ccnc2ccc(OC)cc12` had a pIC50 in experiment [2] of more than 7.00.

With `O=C1OC(CN2CCN(c3ccccc3F)CC2)CN1CCCNc1ccnc2cc(Cl)ccc12` (stereo unspecified), the negative logarithm of the IC50 (pIC50) in experiment [4] and in [5] was 6.37 to 7.21 each time.

Consider `O=C1OC(CN2CCN(c3ccc(F)cc3)CC2)CN1CCNc1ccnc2cc(Cl)ccc12` (stereo unspecified), for which the pIC50 in experiment [4] and in experiment [5] was 6.37 to 7.21 throughout.

Consider `Cc1cccc(C)c1Nc1nc(OCc2cn(CCNc3ccnc4cc(Cl)ccc34)nn2)nc(N(C)C)n1`, for which the pIC50 was 6.24 in experiment [6] and 6.14 in [7].

In experiment [3], `C=C[C@H]1CN2CC[C@H]1C[C@H]2[C@H](OC(=O)[C@H](Cc1ccccc1)NC(=O)c1cn2c3c(c(N4CCN(C)CC4)c(F)cc3c1=O)OC[C@@H]2C)c1ccnc2ccc(OC)cc12` had a pIC50 of 6.68 to 7.92.

Turning to `O[C@@]12OOC3(C=C1C[C@@H]1C=C[C@H]2C1)CCN(c1ccnc2cc(Cl)ccc12)CC3`, the negative logarithm of the IC50 (pIC50) in experiment [8] and in [9] was 5.17 to 5.22 each time.

As for `C=C[C@H]1CN2CC[C@H]1C[C@H]2[C@H](OC(=O)[C@H](C)NC(=O)c1cn(CC)c2nc(C)ccc2c1=O)c1ccnc2ccc(OC)cc12`, the pIC50 in experiment [3] was 6.68 to 7.92.

Regarding `C=C[C@H]1CN2CC[C@H]1C[C@H]2[C@H](OC(=O)[C@H](C)NC(=O)OC(C)(C)C)c1ccnc2ccc(OC)cc12`, the pIC50 in experiment [2] was more than 7.00.

In turn, `C=C[C@H]1CN2CC[C@H]1C[C@H]2[C@H](OC(=O)CNC(=O)[C@@H](NC(=O)OCc1ccccc1)[C@@H](C)CC)c1ccnc2ccc(OC)cc12` had a pIC50 in [2] of more than 7.00.

On to `O=C1OC(CN2CCN(c3ccccc3F)CC2)CN1CCCCCCNc1ccnc2cc(Cl)ccc12` (stereo unspecified), for which the pIC50 in [4] and in [5] was 6.37 to 7.21 each time.
